Laboratory results reported in patent US20200264182A1, “METHOD FOR DETECTING PROSTATE CANCER” (J-OIL MILLS, INC., priority 2017, published 2020).

Test system: serum fucosylated PSA
Assay: Sandwich ELISA, anti-PSA antibody and biotin-labeled lectin
Type: binding, human
Details: for Δ (=A − B): reaction value of Prostate cancer 4 minus Healthy 1; for lectin reaction value B of Healthy 1: serum of Healthy 1; for lectin reaction value A of Prostate cancer 4: serum of Prostate cancer 4, GS 6 (3 + 3)
Protocol: The anti-PSA antibody from which sugar chains had been removed was diluted to 5 μg/mL with PBS. 25 μL of this diluted solution was added to each well of an ELISA plate and allowed to stand at 37° C. for 12 hours, and then the additive solution was discarded.
150 μL of PBS containing 0.05% Tween 20 (product name: polyoxyethylene sorbitan monolaurate, from Nacalai Tesque, Inc.) was added to each well, and then the additive solution was discarded. This manipulation was repeated three times in total.
25 μL of 1% BSA/PBS was added to each well and allowed to stand at 37° C. for 1 hour, and then the additive solution was discarded.
150 μL of PBS containing 0.05% Tween 20 was added to each well, and then the additive solution was discarded. This manipulation was repeated three times in total.
To graph a calibration curve, 25 μL of the fucosylated PSA reference standard diluted with 1% BSA/PBS to a concentration of 0 to 200 ng/mL was added to each well and allowed to stand at room temperature for 1 hour, and then the additive solution was discarded. In addition, to detect the fucosylated PSA in the serum of the subject by the lectin, 25 μL of serum of “Healthy 1” and “Prostate cancer 4” 2-fold diluted with PBS was added to each well and allowed to stand at room temperature for 1 hour, and then the additive solution was discarded.
In Reference Example 1, 25 μL of a biotin-labeled PhoSL diluted to 0.1 μg/mL with 0.1% BSA/PBS (pH 7.4) was added to each well and allowed to stand at 4° C. for 30 minutes, and then the additive solution was discarded. In Example 1, 25 μL of a biotin-labeled PhoSL diluted to 0.1 μg/mL with 0.1% BSA/10-fold diluted PBS+glycine-NaOH (pH 9.6) was added to each well and allowed to stand at 4° C. for 30 minutes, and then the additive solution was discarded.
25 μL of a horseradish peroxidase (HRP)-labeled streptavidin solution (from Vector Laboratories, Inc., concentration: 0.4 μg/mL, in 1% BSA/PBS) was added to each well and allowed to stand at room temperature for 30 minutes, and then the additive solution was discarded.
25 μL of chromogenic substrate for HRP (product name: TMB, from Kirkegaard & Perry Laboratories, Inc.) was added to each well and allowed to stand at room temperature for 10 minutes.
25 μL of 1M phosphoric acid was added to terminate the reaction.
Absorbance (Ab) at 450 nm and 630 nm was measured using a plate reader, and a measurement (Ab450-630) was obtained.
A calibration curve was graphed by plotting signals (reaction values, Ab450-630) of the fucosylated PSA reference standard with the biotin-labeled PhoSL. A Signal (Ab450-630) of the biotin-labeled PhoSL corresponding to the fucosylated PSA concentration of 10 ng/mL was defined as 10 U/mL.
The signals of biotin-labeled PhoSL (Ab450-630) for the serum fucosylated PSA in the subject samples A were assigned to the calibration curve to calculate reaction values (unit: U/mL).
The PhoSL reaction values for the subject samples A were measured by the same operation as in Example 1. From the PhoSL reaction values, an average value and a median value were determined. Furthermore, a standard cutoff value (89.7 U/mL) was used to determine a detection rate (positive rate) of the prostate cancer patients, and a false detection rate (false positive rate) of the healthy persons.
Comparative Example 2 in Table 9 indicates results of detecting the serum fucosylated PSA using AAL (AAL reaction values) in the subject samples A. Specifically, in Reference Example 1, AAL reaction values were measured in the same manner as in Reference Example 1 except that the biotin-labeled PhoSL was replaced with a biotin-labeled AAL. A standard cut-off value for the AAL reaction values was 894.8 U/mL. As in Example 2, an average value, a median value, a positive rate and a false positive rate were determined from the AAL reaction values.

For “PhoSL peptide: synthesized Pholiota squarrosa lectin peptide, SEQ ID No. 6 (Lys substitutions at 1, 20, 39; 40th Gly deleted) (KPVPVTKLVCDGDTYKCTAKLDFGDGRWVAQWDTNVFHK; Modification of SEQ ID(1) in which Ala at position 1, Tyr at position 20 and Thr at position 39 are substituted with Lys, and Gly at position 40 is deleted.)”, the “Δ (=A − B)” value (pH in lectin reaction 7.4) was 100.5 U/mL, the “Δ (=A − B)” value (pH in lectin reaction 9.6) was 234.4 U/mL and the “lectin reaction value B of Healthy 1” value (pH in lectin reaction 7.4) was 1.0 U/mL. For the same substance, the “lectin reaction value B of Healthy 1” value (pH in lectin reaction 9.6) was “Below detection limit”, the “lectin reaction value A of Prostate cancer 4” value (pH in lectin reaction 7.4) was 101.5 U/mL and the “lectin reaction value A of Prostate cancer 4” value (pH in lectin reaction 9.6) was 234.4 U/mL.
